The subject of series [1] is PA myocytes. To be noted: 10 μM.
Protocol: To confirm that the loss of DCF fluorescence upon reoxygenation is not due to cell death subsequent to the opening of the mitochondrial permeability transition pore, additional studies are carried out using tetraethyrhodamine methyl ester (TMRE) to assess mitochondrial membrane potential (ΔΨm). This cationic dye equilibrates across the mitochondrial inner membrane in accordance with the AΔΨm, and changes in endothelia fluorescence at these non-quenching concentrations can be used to detect changes in mitochondrial polarization. PA myocytes on collagen-coated cover slips are loaded with TMRE (100 nM) for 45 minutes at 37° C. The cells are then placed in a flow-through chamber on an inverted microscope and perfused with M199 media without serum containing TMRE (10 nM). Fluorescence images are obtained under baseline normoxic conditions (16% O2/5% CO2) until a stable baseline is established. The PO2 of the media is then lowered for 30 mm (1% O2/5% CO2), after which it is restored to normoxia for 30 minutes.
Series [2] deals with PA smooth muscle cell contraction in the lungs from new born rats (U46619 vasoconstriction). The experiment in a line: Non-specific inhibition test: U46619 vasoconstriction response in isolated perfused lungs. On the set-up: species or system Sprague-Dawley rats. The following applies: U46619 5 ng/mL. As to the method: (§1) Isolated perfused lung preparation prepared from newborn rats. Male or female newborn (less than 48 hours old) Sprague-Dawley rats are anesthetized with pentobarbital sodium (0.65 mg/kg; ip), and heparin (1000 U/kg) is administered intravenously. Lungs are isolated as follows. Briefly, the lungs and the heart are remove en block and the pulmonary artery (PA) and left atrium are cannulated and perfused with a buffered salt solution (BSS) (NaCl (117 mM), KCl (4 mM), NaHCO3 (18 mM), MgSO4 (0.76 mM), NaHPO4′H2O (1 mM), CaCl2 (1.21 mM), and glucose (1 g/L)) containing bovine serum albumin (0.5% w/v) and indomethacin (10 mg/L). After flushing the pulmonary circulation with perfusate (100-200 mL), the lungs are perfused from a recirculating system (35 mL) at 8 mL/min. Perfusate is maintained at […], pH 7.4, and bubbled with 5% O2, 5% CO2, and 90% N2. Left atrial pressure is maintained at 1 cm H2O2 by elevating the venous outflow cannula. The lungs are ventilated with a small animal respirator using a humidified gas mixture of 21% O2, 5% CO2, and 74% N2 (normoxia) at a rate of 54 breaths/in, a tidal volume of 2-3 mL and an end-expiratory pressure of 3 cm H2O2. Left atrial and PA pressures are continuously recorded on a multichannel strip chart recorder (Grass Instruments, Quincy, Mass.).
Hypoxia-induced changes in pulmonary vascular impedance are represented as the change in PA pressure observed during hypoxic ventilation under constant flow conditions, compared with normoxia, in cm H2O. Two hypoxic challenges are performed and averaged to define the baseline response prior to the experimental intervention, thus allowing each lung to act as its own control. The experimental agents then are added to the reservoir and allowed to recirculate for 5-10 minutes, after which two more hypoxic challenges are administered and averaged to evaluate the effects of the intervention. In the continued presence of the experimental agents, the stable thromboxane A2 analog, U46619 (5 ng/mL) is then added to the reservoir to determine the effect on the ability to respond to a receptor-mediated vasoconstricting agonist. This provided a measure of the specificity of the intervention for the response to hypoxia.
Non-specific inhibition of PA smooth muscle cell contraction in the lungs from new born rats. To determine whether the pharmacological agents that inhibited the HPV response in our study might also affect the response a receptor-mediated vasoconstrictor, studies are carried out using the stable Thromboxane A2 analog, U46619 (5 ng/mL). Experiments are performed to assess the U46619 response before and after the addition of the experimental agents. Briefly, lungs are subjected to a challenge of U46619 and the change in PA pressure is measured. The vasculature is then washed out with fresh perfusate until the PA pressure returned to baseline (approximately 10 minutes elapsed time), after which the experimental agents are administered to the reservoir. After 10 minutes, a second dose of U46619 is added to the reservoir and the change in PA pressure is measured. Only Rotenone blunted the U46619 vasoconstriction at 5 μg/mL. Myxothiazol (50 μg/mL), cyanide (10 μM), ebselen (50 μM), and DDC (1 μM) had no effect on the U46619 vasoconstriction response. DPI (10 μM), rotenone (50 ng/mL), antimycin A (1 ng/mL), PDTC (10 μM), and DIDS (200 μM) augmented the U46619 vasoconstriction response.

The conditions of series [3]: aqueous solutions; cited from earlier work.
Series [4] deals with degradation of IκB-β / NF-κB. The following applies: in vivo and experimental lung transplant preservation media; cited from earlier work.
The subject of a further series is PA endothelia myocytes. The experiment in a line: DCFH oxidation (ROS probe) sensitivity check. It counts as cell-based, rat. On the procedure:
Pulmonary microvessel endothelia isolation and measurement of reactive oxygen species (ROS). ROS generation in pulmonary endothelia and myocytes is assessed using the probe 2′,7′-dichlorofluorescin diacetate (DCFH-DA, 5 μM Molecular Probes), which is continuously present in the perfusate. The diacetate form enters the cells where esterases cleave the acetate group, tending to trap the nonfluorescent 2′,7′-dichlorofluorescin (DCFH) intracellularly. In the presence of H2O2, this probe is oxidized to 2′,7′-dichlorofluorescein (DCF), which is quantified using fluorescence imaging (excitation: 488 nm, emission: 535 nm) in a system equipped with a 12 bit digital camera. Intensity values are reported as percent of initial values, after subtracting background (METAMORPHIC, Universal Imaging, Inc.).
To confirm that the DCFH dye is sensitive to oxidation by H2O2, additional studies are carried out in PA endothelia myocytes superfused with normoxic (16% O2) media in the presence of DCFH-DA (5 μM). […] When the H2O2-containing media is replaced with fresh media containing DCFH without H2O2, intracellular fluorescence decreased toward baseline values. These findings confirm that DCFH oxidation is sensitive to H2O2, and that oxidized DCF can leak out of viable cells and explain the decrease in fluorescence seen at reoxygenation.

Series [5] deals with PA myocytes. The experiment in a line: SYTOX Green membrane permeability check. The format is cell-based, rat. The following applies: 300 μM, plasma membrane disruption. On the procedure:
Pulmonary microvessel myocyte isolation from the isolated lungs from the newborn rats. Myocytes are isolated using a modification of the method of Marshall et al. (______ (1999). Freshly excised rat heart and lungs are rinsed with phosphate-buffered saline (PBS) containing penicillin and streptomycin (1%). The right ventricle is cannulated and the pulmonary vasculature is flushed with the PBS (30 mL). Using the PA cannula, M199 growth media (30 mL) containing HEPES (25 mM), and penicillin and streptomycin (1%) plus low melting point agarose (0.5%) and iron particles (0.5%), is flushed through the pulmonary vasculature. Because the iron particles are too large to pass through the capillaries, only the arteries contained iron particles. The airways are filled via the trachea with M199 (15 mL) containing low melting point agarose (1%) without iron. The lungs are plunged into cold PBS to cause the agarose to gel. After 10 minutes, the lobes are dissected free and finely minced in a petri dish. […]
In steady state, increases in fluorescence occur when the rate of intracellular oxidation of the dye is accelerated. […] To confirm that the decrease in DCF fluorescence seen upon reoxygenation is not due to a loss of plasma membrane integrity, additional studies are carried out using SYTOX Green dye (100 nM) to detect changes in membrane permeability. […]

Series [6] concerns isolated lungs from the newborn rats. Kind of series: HPV responses in isolated lungs: PA pressure after agonist. On the set-up: species or system Sprague-Dawley rats. The following applies: 10 nM in recirculating perfusate. As to the method: as §1
HPV responses in isolated lungs from the newborn rats. […]

As for `N#CC(C#N)=NNc1ccc(OC(F)(F)F)cc1` [FCCP, carbonyl cyanide p-trifluoromethoxyphenylhydrazone], in the series on PA myocytes [1], the “TMRE fluorescence (ΔΨm)” value is recorded as “rapid, significant decrease in fluorescence”.

As for `CO/C(=C/C(N)=O)[C@H](C)[C@H](/C=C/c1csc(-c2csc([C@@H](C)/C=C/C=C/C(C)C)n2)n1)OC` [Myxothiazol, myxothiazol], the “effect on U46619 vasoconstriction response” value (“effect” for short) in series [2] (50 μg/mL) is reported as “no effect”.

Take `c1ccc2c(c1)[I+]c1ccccc1-2` [DPI, diphenyleneiodonium]: the “effect” value in series [2] (10 μM) is recorded as “augmented”.

Turning to `CCN(CC)C(=S)S` [DDC, diethyldithiocarbamate], the “effect” value in series [2] (1 μM) was “no effect”.

In the case of `O=c1c2ccccc2[se]n1-c1ccccc1` [ebselen], in series [2] (50 μM), the “effect” value is listed as “no effect”.

On to `COC1=C(OC)C(=O)C(C/C=C(\C)CC/C=C(\C)CC/C=C(\C)CC/C=C(\C)CC/C=C(\C)CC/C=C(\C)CC/C=C(\C)CC/C=C(\C)CC/C=C(\C)CCC=C(C)C)=C(C)C1=O` [CoQ10, 2,3-dimethoxy-5-methyl-6-decaprenyl-1,4-benzoquinone], for which the solubility result in series [3] is listed as “only lipid soluble”.

With `S=C(S)N1CCCC1` [PDTC, pyrrolidine dithiocarbamate], in series [2] (10 μM), the “effect” value is reported as “augmented”. Further, in series [4], the “pulmonary mean arterial pressure (MAP), edema, and cellular infiltration” value is reported as “reduced”; the pulmonary oxygenation result was “improved significantly”. The solubility entry in series [3] is given as “poorly soluble”.

On to `OO` [H2O2], for which, in the series with PA endothelia myocytes, the “intracellular DCF fluorescence” value is “increased significantly and progressively”.

Consider `C[C@@H]1CC[C@@]2(OC1)O[C@H]1[C@@H](O)[C@H]3[C@@H]4CC[C@H]5C[C@@H](O[C@@H]6O[C@H](CO)[C@H](O[C@@H]7O[C@H](CO)[C@@H](O)[C@H](O[C@@H]8OC[C@@H](O)[C@H](O)[C@H]8O)[C@H]7O[C@@H]7O[C@H](CO)[C@H](O)[C@H](O[C@@H]8O[C@H](CO)[C@@H](O)[C@H](O)[C@H]8O)[C@H]7O)[C@H](O)[C@H]6O)[C@H](O)C[C@]5(C)[C@H]4CC[C@]3(C)[C@H]1[C@@H]2C` [digitonin], for which, in the series with PA myocytes [5], the “nuclear staining with SYTOX Green” value was “all cells demonstrated nuclear staining”.

For the molecule Angiotensin II, in series [6], the “increase of PA pressure” value is listed as roughly 2 cm H2O.

As to `O=S(=O)(O)c1cc(N=C=S)ccc1C=Cc1ccc(N=C=S)cc1S(=O)(=O)O` [DIDS, 4,4′-diisothiocyanatostilbene-2,2′-disulphonic acid], the “effect” value in series [2] (200 μM) was “augmented”.

Regarding `C=C(C)[C@H]1Cc2c(ccc3c2O[C@@H]2COc4cc(OC)c(OC)cc4[C@@H]2C3=O)O1` [rotenone], the “effect” value is “augmented” in series [2] (50 ng/mL) and “blunted” in series [2] (5 μg/mL, isolated perfused newborn rat lung).

For antimycin A, in series [2] (1 ng/mL), the “effect” value is “augmented”.

B1: recombinant human IκB-α: recombinant human IκB-α which can maintain the inhibitory effect on NF-κB (protein, UniProt P25963 1-317, looked up)
NF-kappa-B inhibitor alpha: MFQAAERPQEWAMEGPRDGLKKERLLDDRHDSGLDSMKDEEYEQMVKELQEIRLEPQEVPRGSEPWKQQLTEDGDSFLHLAIIHEEKALTMEVIRQVKGDLAFLNFQNNLQQTPLHLAVITNQPEIAEALLGAGCDPELRDFRGNTPLHLACEQGCLASVGVLTQSCTTPHLHSILKATNYNGHTCLHLASIHGYLGIVELLVSLGADVNAQEPCNGRTALHLAVDLQNPDLVSLLLKCGADVNRVTYQGYSPYQLTWGRPSTRIQQQLGQLTLENLQMLPESEDEESYDTESEFTEFTEDELPYDDCVFGGQRLTL
Turning to B1, in series [3], the solubility entry was “poorly soluble”.
